Assay [1] has as its system immune cells in tumor tissues of melanoma (B16F10) tumor-bearing model. Put plainly: Flow cytometry detection of proportion of immune cells in tumor microenvironment of melanoma tumor-bearing mice. In kind it is in vivo, C57BL/6 mice. To be noted: GSK583 1 mg/kg, PTX 10 mg/kg, combination vs vehicle, GSK583-alone. The protocol:
Preparation of enzyme lysis buffer: 1 g of collagenase type IV (Sigma C5138), 100 mg of hyaluronidase (Sigma H6254), and 20,000 units of DNase type IV (Sigma D5025) were added to 80 mL of HBSS and mixed well. The mixture was then added with HBSS to make up a volume of 100 mL to obtain a 100×enzyme lysis buffer, which was filtered through a 0.22 μm filter membrane and stored at −20° C., and diluted with HBSS to 1× concentration before use.
Dissociation of tumor tissues: Tumor tissues were removed and weighed (0.04 to 1 g), then cut into small pieces of 2×2 mm with a scalpel, added with 2.5 mL of enzyme lysis mixture, and transferred to a gentleMACS C Tube (Miltenyi Biotec 130-096-334). The C Tube was inverted on a gentleMACS Dissociator (Miltenyi Biotec 130-093-235), and the program “gentleMACS Program m_impTumor_02” was run. The C Tube was removed from the gentleMACS Dissociator and incubated at 37° C. for 40 minutes. The C Tube was inverted on the gentleMACS Dissociator again, and the program “gentleMACS Program m_impTumor_03” was run. […]
Flow cytometry detection: After counting the dissociated tumor tissues, the cell concentration was adjusted, and 200 μL/well of cells (5 to 10×10^5 cells/well) were added to a 96 U-bottom plate. […] The cells were resuspended in 100 μL/well of cell staining buffer, and then detected by flow cytometry.
In general terms: In flow cytometry, cells or beads pass a laser one at a time.

For another assay, the system named is melanoma (B16F10). Put plainly: Melanoma (B16F10) tumor-bearing model, GSK583 combined with PTX. The format is in vivo, C57BL/6 mice. To be noted: GSK583 1 mg/kg. The protocol: Both of the test substances PTX (Sigma) and GSK583 (MCE) were prepared as a 20× DMSO stock solution, which was diluted with normal saline containing 5% (v/v) polyoxyethylene castor oil (Cremophor EL) to the administration concentration before use. Experimental animals and tumor strains: SPF grade male wild-type C57BL/6 mice, 6 to 8 weeks old, purchased from Beijing Vital River Laboratory Animal Technology Co., Ltd. Cells used in the experiment: murine melanoma cell line (B16-F10), purchased from ATCC. Mice were randomly divided into 4 groups with 8 mice in each group based on body weight according to the method shown in (A of FIG. 1 and B of FIG. 1), namely: (i) vehicle control group; (ii) GSK583 (1 mg/kg) group; (iii) PTX (10 mg/kg) group; (iv) GSK583 (1 mg/kg)+PTX (10 mg/kg) group. PTX, GSK583, and vehicle were administered intravenously once every 4 days for a total of 4 doses. The mice were subcutaneously inoculated with B16-F10 cells with a concentration of 2× 10^6 cells/mL and 0.1 mL/mouse, and the day of inoculation was recorded as DAY 0. The administration was started on DAY 1. During the administration, the animals were weighed every 2 days. The long diameter and short diameter of the tumor were measured with a vernier caliper. The tumor size was calculated by the formula: (½)×long diameter×(short diameter) 2. The experiment was terminated on DAY 15. After the mice were euthanized and dissected, the tumor was weighed and the tumor inhibition rate was calculated.

On to `CC(=O)O[C@H]1C(=O)[C@@]2(C)[C@H]([C@H](OC(=O)c3ccccc3)[C@]3(O)C[C@H](OC(=O)[C@H](O)[C@@H](NC(=O)c4ccccc4)c4ccccc4)C(C)=C1C3(C)C)[C@]1(OC(C)=O)CO[C@@H]1C[C@@H]2O` [PTX, Paclitaxel], for which the “proportion of neutrophils in tumor tissues” value in assay [1] was “significant decrease”. Besides, the “tumor weight at the end of the administration” value in the assay on melanoma (B16F10) (B16-F10 in C57BL/6 mice, PTX 10 mg/kg i.v. every 4 days x4, DAY 15, vs control group) is “significantly and statistically lower than that of the control group”. Moreover, in the assay on melanoma (B16F10) (B16-F10 in C57BL/6 mice, PTX 10 mg/kg i.v. every 4 days x4, vs control group), the “growth rate of tumor volume” value was “slower than that of the control group”. Also, in the assay on melanoma (B16F10) (B16-F10 s.c. in C57BL/6 mice, PTX 10 mg/kg i.v. once every 4 days, 4 doses, to DAY 15), the “tumor growth compared to the vehicle control group” value is recorded as “significantly inhibited tumor growth”.

The values are drawn from patent US20240423971A1, “APPLICATION OF RIP2 INHIBITOR COMBINED WITH CHEMOTHERAPY DRUG” (NINGBO COMBIREG PHARMACEUTICAL TECHNOLOGY CO., LTD., priority 2021, published 2024).
